Test results from US20070049599A1, “Use of bh4 for the treatment of respiratory diseases” (Altana Pharma AG, priority 2003, published 2007).

Columns and labels:
human iNOS [1] = target: T1, human iNOS (Homo sapiens, UniProt P35228); test: Superoxide production from recombinant BH4-free and arginine-free human iNOS (ESR, CPH spin trap); format: biochemical; parameters: made in house; host or cells: E. coli; settings: incubation with arginine alone, FIG. 3b
Procedure: Recombinant human iNOS was overexpressed in E. coli and purified using an ADP sepharose column and subsequently a Superdex column to yield BH4free and arginine-free iNOS. 1 μg of human iNOS was incubated together with 200 μM NADPH and 1 mM CPH. After incubation at 37° C. for 60 min the superoxide produced was measured as stable CPH radical in a Bruker e-scan device via electron spin resonance spectroscopy (ESR).

[2] = test system: EA.hy926 endothelial cells; test: Conversion of BH4 derivatives into BH4 by endothelial cells (intracellular biopterin content by HPLC); format: cell-based; settings: 100 μM, FIG. 1
Procedure: Endothelial cells (HUVEC and ERhy926) were cultivated in the appropriate culture medium and treated with sepiapterin and BH4 (100 μM each) respectively, for the indicated time periods. After excess wash steps using PBS the cells were lysed and the biopterin content was analysed by reversed phase HPLC with fluorescence detection (excitation: 350 nm, emission: 450 nm) after iodine reduction and semi-purification on Dowex beads as described in detail in Hesslinger et al., J. Biol. Chem. 273, 21616-21622, 1998.

human iNOS [3] = target: T1, human iNOS; test: Promotion of NO synthesis in DAHP-pretreated HEK293iNOS cells (Griess assay); format: cell-based; settings: HEK293iNOS cells pretreated with 10 mM DAHP, increasing concentrations, concentration-dependent, FIG. 2
Procedure: HEK293 cells stably transfected with human iNOS under the transcriptional control of a PonA-inducible promoter were treated with 10 mM DAHP (diaminohydroxypyridin), an inhibitor of GTP cyclohydrolase (Xie et al., J. Biol. Chem. 273, 21091-21098, 1998), to block endogenous production of tetrahydrobiopterin. After stimulating iNOS expression with […] PonA for 24 h and concomitant treatment with 10 mM DAHP increasing concentrations of BH4 or sepiapterin were added and the NO production was measured using the Griess assay to analyse the stable NO products nitrite and nitrate. Nitrate was reduced to nitrite by nitrate reductase and its absorption was determined at 544 nm in a Wallac spectrophotometer.

NO synthesis from iNOS (nitrite/nitrate, Griess assay) (human iNOS [3])	SMILES	reduction of superoxide production (human iNOS [1])	conversion of exogenous compound into intracellular biopterin [2]
	N=C(N)NCCC[C@H](N)C(=O)O [arginine]	50%	
promoted NO synthesis	C[C@H](O)C(=O)C1=Nc2c(nc(N)[nH]c2=O)NC1 [sepiapterin]		effectively converted into intracellular biopterin within a few minutes
